From ChEMBL document CHEMBL3638446, “Quinoxaline inhibitors of phosphoinositide-3-kinases (PI3Ks)” (2013)

Target: Phosphatidylinositol 4,5-bisphosphate 3-kinase catalytic subunit gamma isoform (Homo sapiens, UniProt P48736)
Experiment: Biological Assay: The assay combines the scintillation proximity assay technology (SPA, Amersham) with the capacity of neomycin (a polycationic antibiotic) to bind phospholipids with high affinity and specificity. The Scintillation Proximity Assay is based on the properties of weakly emitting isotopes (such as 3H, 125I, 33P). Coating SPA beads with neomycin allows the detection of phosphorylated lipid substrates after incubation with recombinant PI3K and radioactive ATP in the same well, by capturing the radioactive phospholipids to the SPA beads through their specific binding to neomycin.

Phosphatidylinositol 4,5-bisphosphate 3-kinase catalytic subunit gamma isoform, sequence (P48736 whole entry, canonical isoform): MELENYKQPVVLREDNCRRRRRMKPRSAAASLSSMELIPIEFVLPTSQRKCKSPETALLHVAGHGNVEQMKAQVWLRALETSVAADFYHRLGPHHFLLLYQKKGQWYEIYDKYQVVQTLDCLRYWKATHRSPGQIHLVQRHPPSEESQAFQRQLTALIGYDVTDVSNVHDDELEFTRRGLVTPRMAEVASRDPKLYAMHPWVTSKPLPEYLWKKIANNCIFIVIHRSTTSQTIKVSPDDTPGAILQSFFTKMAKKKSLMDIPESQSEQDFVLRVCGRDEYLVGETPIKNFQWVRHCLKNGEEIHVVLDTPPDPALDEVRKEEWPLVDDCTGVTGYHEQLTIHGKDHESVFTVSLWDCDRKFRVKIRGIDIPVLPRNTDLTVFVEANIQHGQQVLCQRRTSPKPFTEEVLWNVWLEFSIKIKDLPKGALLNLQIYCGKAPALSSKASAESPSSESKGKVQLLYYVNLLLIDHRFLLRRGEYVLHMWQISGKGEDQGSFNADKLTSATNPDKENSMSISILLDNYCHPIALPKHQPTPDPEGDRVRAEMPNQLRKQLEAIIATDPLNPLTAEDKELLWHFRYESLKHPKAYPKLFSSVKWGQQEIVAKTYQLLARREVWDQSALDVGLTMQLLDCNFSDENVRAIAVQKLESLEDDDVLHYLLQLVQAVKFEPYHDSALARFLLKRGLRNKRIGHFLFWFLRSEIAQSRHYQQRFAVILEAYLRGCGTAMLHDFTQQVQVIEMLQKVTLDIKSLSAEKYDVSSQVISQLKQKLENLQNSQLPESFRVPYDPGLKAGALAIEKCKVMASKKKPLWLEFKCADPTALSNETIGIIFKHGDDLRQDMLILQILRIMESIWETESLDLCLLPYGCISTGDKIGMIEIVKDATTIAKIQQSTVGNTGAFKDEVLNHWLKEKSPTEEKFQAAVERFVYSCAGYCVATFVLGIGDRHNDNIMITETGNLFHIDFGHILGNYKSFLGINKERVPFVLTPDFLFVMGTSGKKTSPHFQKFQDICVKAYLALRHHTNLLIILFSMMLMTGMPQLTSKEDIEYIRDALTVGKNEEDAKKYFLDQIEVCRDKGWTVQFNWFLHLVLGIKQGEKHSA

IC50: 30 nM
SMILES: COc1ccc(CC2CCOCC2)c(Nc2nc3ccccc3nc2NS(=O)(=O)c2ccc(CN(C)C)cc2)c1
